According to US20170319562A1, “Compositions and Methods for Extended Therapy with Aminopyridines” (Acorda Therapeutics, Inc., priority 2009, published 2017):

Assays:
[1] = Single oral dose of 14C-labeled 4-aminopyridine (1 mg/kg) in rats; conditions: for tissue-to-blood ratio: oral dose; for AUC / Cmax / Tmax / half-life: rat, plasma, po, 1 mg/kg
Experimental: (§1) Studies were performed in rats and dogs using “C-labeled 4-aminopyridine (1 mg/kg) given as a single oral gavage dose in solution.
In a single-dose study, rats were administered “C-labeled 4-aminopyridine (1 mg/kg) p.o. Three animals per time point were sacrificed 1, 3, 8, and 24 hours post-dose. Blood was collected and tissues were excised for determination of radioactivity.

[2] = Single oral dose of 14C-labeled 4-aminopyridine (1 mg/kg) in dogs; format: in vivo; conditions: dog, plasma, 1 mg/kg oral
Experimental: as §1

Nc1ccncc1 [^14C-4-Aminopyridine]
radioactivity in tissue, percentage of the dose ([1]; blood, one hour post-dose): 0.7% | radioactivity in tissue, percentage of the dose ([1]; carcass, 3 hours post-dose): 15.4% | radioactivity in tissue, percentage of the dose ([1]; carcass, one hour post-dose): 51% | tissue-to-blood ratio ([1]; cerebellum): 1.48 | tissue-to-blood ratio ([1]; cerebrum): 3.07 | AUC ([1]; female): 506 ± 63.3 ng·h/mL | Cmax ([1]; female): 168 ± 15.7 ng/g | Tmax ([1]; female): 0.5 h | half-life ([1]; female): 1.4 ± 0.17 h | radioactivity in tissue, percentage of the dose ([1]; kidney, one hour post-dose): 1.6% | radioactivity in tissue, percentage of the dose ([1]; liver, one hour post-dose): 2.6% | AUC ([1]; male): 498 ± 17.6 ng·h/mL | Cmax ([1]; male): 189 ± 20.2 ng/g | Tmax ([1]; male): 1 h | half-life ([1]; male): 1.1 ± 0.04 h | dose accounted for in total ([1]; one hour post-dose): 58.3% | AUC ([2]; female, females): 1920 ± 150 ng·h/mL | Cmax ([2]; female, females): 635 ± 103 ng/g | Tmax ([2]; female, females): 0.8 ± 0.3 h | half-life ([2]; female, females): 1.8 ± 0.04 h | AUC ([2]; male, males): 2030 ± 406 ng·h/mL | Cmax ([2]; male, males): 574 ± 123 ng/g | Tmax ([2]; male, males): 1 h | half-life ([2]; male, males): 2.1 ± 0.14 h
